Experimental data as given in ChEMBL document CHEMBL1127903, “Heteroaromatic Taxol Analogues: The Chemistry and Biological Activities of 3-Furyl and 3-Pyridyl Substituted Taxanes” (1994).

Key:
[1] = tested on: B16; test: Tested for cytotoxic effect against B16 melanoma cells relative to taxol as1; assay type: functional, Mus musculus
[2] = target: Tubulin alpha chain (Sus scrofa) (UniProt P02550); test: Tested for the effect on polymerization of the tubulin present by microtubule assembly assay relative to taxol as1; assay type: functional
[3] = target: Tubulin alpha chain (Sus scrofa) (UniProt P02550); test: Tested for the effect on polymerization of the tubulin present by microtubule assembly assay; assay type: functional
[4] = tested on: B16; test: Tested for cytotoxic effect against B16 melanoma cells; assay type: functional, Mus musculus

Chain of Tubulin alpha chain (Sus scrofa) (P02550 whole entry, looked up): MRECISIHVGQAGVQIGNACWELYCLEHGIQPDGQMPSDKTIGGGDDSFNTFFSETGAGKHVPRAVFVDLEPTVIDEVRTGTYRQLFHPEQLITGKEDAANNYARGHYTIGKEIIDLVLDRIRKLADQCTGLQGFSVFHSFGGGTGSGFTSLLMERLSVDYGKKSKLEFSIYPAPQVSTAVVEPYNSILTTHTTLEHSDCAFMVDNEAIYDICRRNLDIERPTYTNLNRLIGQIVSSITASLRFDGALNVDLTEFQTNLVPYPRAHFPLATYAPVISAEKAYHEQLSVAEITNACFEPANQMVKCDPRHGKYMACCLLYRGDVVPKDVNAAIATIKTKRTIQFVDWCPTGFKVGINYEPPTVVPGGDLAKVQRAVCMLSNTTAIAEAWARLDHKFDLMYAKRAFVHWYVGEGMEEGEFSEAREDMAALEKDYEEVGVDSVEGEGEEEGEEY

SMILES | ED50 ratio [1] | ED50 ratio [2] | ED50 ratio [3] | ED50 ratio [4]
CC(=O)O[C@H]1C(=O)[C@@]2(C)[C@H]([C@H](OC(=O)c3ccccc3)[C@]3(O)C[C@H](OC(=O)[C@H](O)[C@@H](NC(=O)c4ccccc4)c4cccnc4)C(C)=C1C3(C)C)[C@]1(OC(C)=O)CO[C@@H]1C[C@@H]2O | 27 | 0.5 | – | –
CC(=O)O[C@H]1C(=O)[C@@]2(C)[C@H]([C@H](OC(=O)c3ccccc3)[C@]3(O)C[C@H](OC(=O)[C@H](O)[C@@H](NC(=O)c4ccccc4)c4ccncc4)C(C)=C1C3(C)C)[C@]1(OC(C)=O)CO[C@@H]1C[C@@H]2O | 1.3 | 0.4 | – | –
CC(=O)O[C@H]1C(=O)[C@@]2(C)[C@H]([C@H](OC(=O)c3ccccc3)[C@]3(O)C[C@H](OC(=O)[C@H](O)[C@@H](NC(=O)c4ccccc4)c4ccccc4)C(C)=C1C3(C)C)[C@]1(OC(C)=O)CO[C@@H]1C[C@@H]2O [PACLITAXEL] | – | – | 1 | 1
CC(=O)O[C@H]1C(=O)[C@@]2(C)[C@H]([C@H](OC(=O)c3ccccc3)[C@]3(O)C[C@H](OC(=O)[C@H](O)[C@@H](NC(=O)c4ccccc4)c4ccccn4)C(C)=C1C3(C)C)[C@]1(OC(C)=O)CO[C@@H]1C[C@@H]2O | 0.8 | 0.7 | – | –
CC(=O)O[C@H]1C(=O)[C@@]2(C)[C@H]([C@H](OC(=O)c3ccccc3)[C@]3(O)C[C@H](OC(=O)[C@H](O)[C@@H](NC(=O)c4ccccc4)c4ccoc4)C(C)=C1C3(C)C)[C@]1(OC(C)=O)CO[C@@H]1C[C@@H]2O | 3.3 | 0.9 | – | –
CC(=O)O[C@H]1C(=O)[C@@]2(C)[C@H]([C@H](OC(=O)c3ccccc3)[C@]3(O)C[C@H](OC(=O)[C@H](O)[C@@H](NC(=O)c4ccccc4)c4ccco4)C(C)=C1C3(C)C)[C@]1(OC(C)=O)CO[C@@H]1C[C@@H]2O | 0.3 | 0.9 | – | –
